Test results as given in the NIST ThermoML archive (doi:10.1021/je600557n).
± gives the expanded uncertainty stated by the source.

Key:
[1] = refractive index (Na D-line) (dimensionless); conditions: 101.33 kPa, Liquid, Standard Abbe refractometry
[2] = molar heat capacity at constant pressure; conditions: 101.33 kPa, Liquid, Small sample (50 mg) DSC
[3] = 101.33 kPa, Liquid

refractive index ([1]; 293.15 K) | refractive index ([1]; 303.15 K) | refractive index ([1]; 313.15 K) | molar heat capacity at constant pressure ([2]; 288.15 K) | molar heat capacity at constant pressure ([2]; 293.15 K) | molar heat capacity at constant pressure ([2]; 298.15 K) | molar heat capacity at constant pressure ([2]; 303.15 K) | molar heat capacity at constant pressure ([2]; 308.15 K) | molar heat capacity at constant pressure ([2]; 313.15 K) | molar heat capacity at constant pressure ([2]; 318.15 K) | molar heat capacity at constant pressure ([2]; 323.15 K) | mass density ([3]; 293.15 K) | viscosity ([3]; 293.15 K) | mass density ([3]; 303.15 K) | viscosity ([3]; 303.15 K) | mass density ([3]; 313.15 K) | viscosity ([3]; 313.15 K) | SMILES
1.4085 ± 0.0008 | 1.4017 ± 0.0007 | 1.3959 ± 0.0007 | 153.5 ± 2.4 J/K/mol | 155.3 ± 2.4 J/K/mol | 156.9 ± 2.4 J/K/mol | 158.7 ± 2.5 J/K/mol | 160.2 ± 2.5 J/K/mol | 162.1 ± 2.5 J/K/mol | 164.2 ± 2.5 J/K/mol | 166.2 ± 2.6 J/K/mol | 853.15 ± 0.68 kg/m3 | 0.492 ± 0.008 mPa·s | 842.8 ± 0.7 kg/m3 | 0.443 ± 0.008 mPa·s | 832.44 ± 0.72 kg/m3 | 0.416 ± 0.007 mPa·s | CC1CCCO1 (stereo unspecified) [2-methyltetrahydrofuran]
1.4815 ± 0.0007 | 1.475 ± 0.0007 | 1.4706 ± 0.0006 | 149.9 ± 2.3 J/K/mol | 150.4 ± 2.3 J/K/mol | 151.5 ± 2.3 J/K/mol | 152.2 ± 2.4 J/K/mol | 152.9 ± 2.4 J/K/mol | 153.7 ± 2.4 J/K/mol | 154.7 ± 2.4 J/K/mol | 155.6 ± 2.4 J/K/mol | 1100.42 ± 0.23 kg/m3 | 2.213 ± 0.033 mPa·s | 1090.41 ± 0.22 kg/m3 | 1.812 ± 0.027 mPa·s | 1080.26 ± 0.21 kg/m3 | 1.513 ± 0.023 mPa·s | C[S+](C)[O-] [dimethyl sulfoxide]
1.4235 ± 0.0008 | 1.4171 ± 0.0007 | 1.4119 ± 0.0007 | 143.4 ± 2.2 J/K/mol | 145.2 ± 2.3 J/K/mol | 147.8 ± 2.3 J/K/mol | 150.2 ± 2.3 J/K/mol | 152.6 ± 2.4 J/K/mol | 156 ± 2.4 J/K/mol | 157.6 ± 2.4 J/K/mol | 159.9 ± 2.5 J/K/mol | 883.79 ± 0.62 kg/m3 | 0.875 ± 0.014 mPa·s | 873.95 ± 0.64 kg/m3 | 0.752 ± 0.012 mPa·s | 863.62 ± 0.66 kg/m3 | 0.658 ± 0.011 mPa·s | C1CCOCC1 [tetrahydropyran]
